Laboratory results as given in ChEMBL document CHEMBL1201862, “PubChem BioAssay data set” (2004).
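Interpolation was linear, between the two tested concentrations surrounding the appropriate level; five concentrations were tested over 48 hours in 96-well plates. GI50 marks 50% less growth.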 Activity calls are given as the source filed them. No stated cut-off is given here; in the data, active = GI50 up to about 1.1 µM and inactive = higher.

Key:
Assay in all cases: NCI-60 cell line screen, 48 h
HL-60 = system: HL-60
HOP-62 = system: HOP-62
Hs-578T = system: Hs-578T
LOX IMVI = system: LOX IMVI
MCF7 = system: MCF7
MDA-MB-231 = system: MDA-MB-231
Malme-3M = system: Malme-3M
NCI-H226 = system: NCI-H226
NCI-H23 = system: NCI-H23
NCI-H460 = system: NCI-H460
PC-3 = system: PC-3
RXF 393 = system: RXF 393
SF-268 = system: SF-268
SK-OV-3 = system: SK-OV-3
SN12C = system: SN12C
T47D = system: T47D
TK-10 = system: TK-10
UACC-62 = system: UACC-62
HOP-92 = system: HOP-92

Measured: GI50

Cn1ccnc1CCc1ccc(F)cc1F
inactive: HL-60 > 100 µM | HOP-62 > 100 µM | Hs-578T > 100 µM | LOX IMVI > 100 µM | MCF7 > 100 µM | MDA-MB-231 > 100 µM | Malme-3M > 100 µM | NCI-H226 > 100 µM | NCI-H23 > 100 µM | NCI-H460 > 100 µM | PC-3 > 100 µM | RXF 393 > 100 µM | SF-268 > 100 µM | SK-OV-3 > 100 µM | SN12C > 100 µM | T47D > 100 µM | TK-10 > 100 µM | UACC-62 > 100 µM

Cc1ccc(/C=C/C(=O)Oc2ccc(/C=C3\CCC/C(=C\c4ccc(OC(=O)/C=C/c5ccc(C)cc5)cc4)C3=O)cc2)cc1
inactive: HL-60 57.4 µM | HOP-62 29.1 µM | HOP-92 77.6 µM | Hs-578T 19 µM | LOX IMVI > 100 µM | MCF7 > 100 µM | MDA-MB-231 28.8 µM | NCI-H23 > 100 µM | NCI-H460 > 100 µM | PC-3 > 100 µM | SF-268 > 100 µM | SN12C > 100 µM | T47D 92.3 µM | TK-10 31.4 µM | UACC-62 74.1 µM

CC(=O)OC12c3ccccc3C(c3ccccc31)C1C(=O)N(c3ccccn3)C(=O)C12 (stereo unspecified)
inactive: HL-60 33.5 µM | HOP-62 65.6 µM | Hs-578T 14.3 µM | LOX IMVI > 100 µM | MCF7 > 100 µM | MDA-MB-231 77.8 µM | Malme-3M 31.8 µM | NCI-H226 > 100 µM | NCI-H23 > 100 µM | PC-3 47.9 µM | RXF 393 > 100 µM | SF-268 87.3 µM | SK-OV-3 > 100 µM | SN12C 81.1 µM | T47D 53.3 µM | TK-10 > 100 µM | UACC-62 91.6 µM

Cc1[nH]n(-c2nc3c(c(=O)[nH]2)CCC3)c(=O)c1CCO
inactive: HL-60 > 100 µM | HOP-62 > 100 µM | Hs-578T > 100 µM | LOX IMVI > 100 µM | MCF7 > 100 µM | MDA-MB-231 > 100 µM | Malme-3M > 100 µM | NCI-H226 > 100 µM | NCI-H23 > 100 µM | NCI-H460 > 100 µM | PC-3 > 100 µM | RXF 393 > 100 µM | SF-268 > 100 µM | SK-OV-3 > 100 µM | SN12C > 100 µM | T47D > 100 µM | TK-10 > 100 µM | UACC-62 > 100 µM

Cc1n[nH]c(=O)n1/N=C/c1cccs1
inactive: HOP-62 > 100 µM | Hs-578T 36.5 µM | LOX IMVI > 100 µM | MCF7 > 100 µM | MDA-MB-231 > 100 µM | Malme-3M > 100 µM | NCI-H226 > 100 µM | NCI-H23 > 100 µM | NCI-H460 > 100 µM | PC-3 > 100 µM | RXF 393 > 100 µM | SF-268 > 100 µM | SK-OV-3 > 100 µM | SN12C > 100 µM | T47D > 100 µM | UACC-62 > 100 µM

COc1nc(C)nc2sc3c(c12)CCCC3
inactive: HL-60 > 100 µM | HOP-62 > 100 µM | Hs-578T > 100 µM | LOX IMVI > 100 µM | MCF7 > 100 µM | MDA-MB-231 > 100 µM | Malme-3M > 100 µM | NCI-H226 > 100 µM | NCI-H23 > 100 µM | NCI-H460 > 100 µM | PC-3 > 100 µM | RXF 393 > 100 µM | SF-268 > 100 µM | SN12C > 100 µM | T47D > 100 µM | TK-10 > 100 µM | UACC-62 > 100 µM
